{"source": "patent US11253499B2", "about": "“Compounds” (priority 2017, dated 2022)", "data": [{"system": "M. tuberculosis W4-E1-GFP (Mutant)", "type": "cell-based, Mycobacterium tuberculosis", "conditions": "read-out: EC50_Mutant", "units": {"EC50": "µM"}, "values": [{"smiles": "O=C(CCC(F)(F)F)N1CC(c2ccc(F)cc2)C1", "note": "[Example 1, 4,4,4-trifluoro-1-[3-(4-fluorophenyl)azetidin-1-yl]butan-1-one]", "EC50": "< 0.05"}, {"smiles": "O=C(CCC(F)(F)F)N1CC(c2cccc(C(F)(F)F)c2)C1", "note": "[Example 2, 4,4,4-trifluoro-1-[3-[3-(trifluoromethyl)phenyl]azetidin-1-yl]butan-1-one]", "EC50": "0.05 to 0.25"}, {"smiles": "O=C(CCCC(F)(F)F)N1CC(c2ccc(F)cc2)C1", "note": "[Example 3, 5,5,5-trifluoro-1-[3-(4-fluorophenyl)azetidin-1-yl]pentan-1-one]", "EC50": "0.05 to 0.25"}, {"smiles": "O=C(CCC(F)(F)F)N1CC(C2CC2)C1", "note": "[Example 4, 1-(3-cyclopropylazetidin-1-yl)-4,4,4-trifluoro-butan-1-one]", "EC50": "0.5 to 1"}, {"smiles": "O=C(CCC(F)(F)F)N1CC(C2CCCC2)C1", "note": "[Example 5, 1-(3-cyclopentylazetidin-1-yl)-4,4,4-trifluoro-butan-1-one]", "EC50": "0.05 to 0.25"}, {"smiles": "O=C(CCC(F)(F)F)N1CC(C2CCCCC2)C1", "note": "[Example 6, 1-(3-cyclohexylazetidin-1-yl)-4,4,4-trifluoro-butan-1-one]", "EC50": "< 0.05"}, {"smiles": "O=C(CCC(F)(F)F)N1CC(c2cc(C(F)(F)F)ccn2)C1", "note": "[Example 7, 4,4,4-trifluoro-1-[3-[4-(trifluoromethyl)-2-pyridyl]azetidin-1-yl]butan-1-one]", "EC50": "0.25 to 0.5"}, {"smiles": "O=C(CCC(F)(F)F)N1CC(c2ccc(C(F)(F)F)cn2)C1", "note": "[Example 8, 4,4,4-trifluoro-1-[3-[5-(trifluoromethyl)-2-pyridyl]azetidin-1-yl]butan-1-one]", "EC50": "0.5 to 1"}, {"smiles": "O=C(CCC(F)(F)F)N1CC(c2ccc(F)cn2)C1", "note": "[Example 9, 4,4,4-trifluoro-1-[3-(5-fluoro-2-pyridyl)azetidin-1-yl]butan-1-one]", "EC50": "0.5 to 1"}, {"smiles": "O=C(CCC(F)(F)F)N1CC(c2ncc(F)cc2F)C1", "note": "[Example 10, 1-[3-(3,5-difluoro-2-pyridyl)azetidin-1-yl]-4,4,4-trifluoro-butan-1-one]", "EC50": "0.25 to 0.5"}, {"smiles": "O=C(CCC(F)(F)F)N1CC(c2cc(Cl)ccn2)C1", "note": "[Example 11, 1-[3-(4-chloro-2-pyridyl)azetidin-1-yl]-4,4,4-trifluoro-butan-1-one]", "EC50": "0.05 to 0.25"}, {"smiles": "O=C(CCC(F)(F)F)N1CC(c2ccnc(C(F)(F)F)c2)C1", "note": "[Example 12, 4,4,4-trifluoro-1-[3-[2-(trifluoromethyl)-4-pyridyl]azetidin-1-yl]butan-1-one]", "EC50": "1 to 10"}, {"smiles": "O=C(CCC(F)(F)F)N1CC(c2ccc(Cl)cc2)C1", "note": "[Example 13, 1-[3-(4-chlorophenyl)azetidin-1-yl]-4,4,4-trifluoro-butan-1-one]", "EC50": "0.05 to 0.25"}, {"smiles": "O=C(CCC(F)(F)F)N1CC(c2ccc(OC(F)(F)F)cc2)C1", "note": "[Example 14, 4,4,4-trifluoro-1-[3-[4-(trifluoromethoxy)phenyl]azetidin-1-yl]butan-1-one]", "EC50": "1 to 10"}, {"smiles": "O=C(CCC(F)(F)F)N1CC(c2cccc(OC(F)(F)F)c2)C1", "note": "[Example 15, 4,4,4-trifluoro-1-[3-[3-(trifluoromethoxy)phenyl]azetidin-1-yl]butan-1-one]", "EC50": "0.05 to 0.25"}, {"smiles": "O=C(CCC(F)(F)F)N1CC(c2ccc(C(F)(F)F)cc2)C1", "note": "[Example 16]", "EC50": "0.25 to 0.5"}, {"smiles": "O=C(CCC(F)(F)F)N1CC(c2cccc(Cl)c2)C1", "note": "[Example 17, 1-[3-(3-chlorophenyl)azetidin-1-yl]-4,4,4-trifluoro-butan-1-one]", "EC50": "< 0.05"}, {"smiles": "O=C(CCC(F)(F)F)N1CC(c2ccc(F)cc2F)C1", "note": "[Example 18, 1-[3-(2,4-difluorophenyl)azetidin-1-yl]-4,4,4-trifluoro-butan-1-one]", "EC50": "< 0.05"}, {"smiles": "O=C(CCC(F)(F)F)N1CC(c2ccc(Cl)nc2)C1", "note": "[Example 19]", "EC50": "1 to 10"}, {"smiles": "O=C(CCC(F)(F)F)N1CC(c2ccc(F)cc2Cl)C1", "note": "[Example 20, 1-[3-(2-chloro-4-fluoro-phenyl)azetidin-1-yl]-4,4,4-trifluoro-butan-1-one]", "EC50": "0.05 to 0.25"}, {"smiles": "O=C(CCC(F)(F)F)N1CC(c2ccc(C(F)(F)F)nc2)C1", "note": "[Example 21, 4,4,4-trifluoro-1-[3-[6-(trifluoromethyl)-3-pyridyl]azetidin-1-yl]butan-1-one]", "EC50": "1 to 10"}, {"smiles": "COc1ccc(C2CN(C(=O)CCC(F)(F)F)C2)cn1", "note": "[Example 22, 4,4,4-trifluoro-1-[3-(6-methoxy-3-pyridyl)azetidin-1-yl]butan-1-one]", "EC50": "0.05 to 0.25"}, {"smiles": "O=C(CCC(F)(F)F)N1CC(c2cncc(Cl)c2)C1", "note": "[Example 23, 1-[3-(5-chloro-3-pyridyl)azetidin-1-yl]-4,4,4-trifluoro-butan-1-one]", "EC50": "1 to 10"}, {"smiles": "O=C(CCC(F)(F)F)N1CC(c2cncc(C(F)(F)F)c2)C1", "note": "[Example 24, 4,4,4-trifluoro-1-[3-[5-(trifluoromethyl)-3-pyridyl]azetidin-1-yl]butan-1-one]", "EC50": "1 to 10"}, {"smiles": "O=C(CCC(F)(F)F)N1CC(c2ccc(F)cc2C(F)(F)F)C1", "note": "[Example 25, 4,4,4-trifluoro-1-[3-[4-fluoro-2-(trifluoromethyl)phenyl]azetidin-1-yl]butan-1-one]", "EC50": "0.25 to 0.5"}, {"smiles": "O=C(CCC(F)(F)F)N1CC(c2cccnc2)C1", "note": "[Example 26, 4,4,4-trifluoro-1-[3-(3-pyridyl)azetidin-1-yl]butan-1-one]", "EC50": "1 to 10"}, {"smiles": "O=C(CCC(F)(F)F)N1CC(c2ccc(F)c(F)c2)C1", "note": "[Example 27, 1-[3-(3,4-difluorophenyl)azetidin-1-yl]-4,4,4-trifluoro-butan-1-one]", "EC50": "< 0.05"}, {"smiles": "Cc1cc(F)ccc1C1CN(C(=O)CCC(F)(F)F)C1", "note": "[Example 28, 4,4,4-trifluoro-1-[3-(4-fluoro-2-methyl-phenyl)azetidin-1-yl]butan-1-one]", "EC50": "0.25 to 0.5"}, {"smiles": "O=C(CCC(F)(F)F)N1CC(c2cccc(F)c2)C1", "note": "[Example 29, 4,4,4-trifluoro-1-[3-(3-fluorophenyl)azetidin-1-yl]butan-1-one]", "EC50": "0.05 to 0.25"}, {"smiles": "O=C(CCC(F)(F)F)N1CC(c2ccncc2)C1", "note": "[Example 30, 4,4,4-trifluoro-1-[3-(4-pyridyl)azetidin-1-yl]butan-1-one]", "EC50": "1 to 10"}, {"smiles": "O=C(CCC(F)(F)F)N1CC(c2ccnc(F)c2)C1", "note": "[Example 31, 4,4,4-trifluoro-1-[3-(2-fluoro-4-pyridyl)azetidin-1-yl]butan-1-one]", "EC50": "1 to 10"}, {"smiles": "O=C(CCC(F)(F)F)N1CC(c2ccnc(Cl)c2)C1", "note": "[Example 32, 1-[3-(2-chloro-4-pyridyl)azetidin-1-yl]-4,4,4-trifluoro-butan-1-one]", "EC50": "1 to 10"}, {"smiles": "O=C(CCC(F)(F)F)N1CC(c2ccc(F)nc2)C1", "note": "[Example 33, 4,4,4-trifluoro-1-[3-(6-fluoro-3-pyridyl)azetidin-1-yl]butan-1-one]", "EC50": "1 to 10"}, {"smiles": "O=C(CCC(F)(F)F)N1CC(c2cc(F)c(F)c(F)c2)C1", "note": "[Example 34, 4,4,4-trifluoro-1-[3-(3,4,5-trifluorophenyl)azetidin-1-yl]butan-1-one]", "EC50": "0.05 to 0.25"}, {"smiles": "O=C(CCC(F)(F)F)N1CC(N2CCC(F)(F)CC2)C1", "note": "[Example 35, 1-[3-(4,4-difluoro-1-piperidyl)azetidin-1-yl]-4,4,4-trifluoro-butan-1-one]", "EC50": "0.5 to 1"}, {"smiles": "CC(C)Oc1ccc(C2CN(C(=O)CCC(F)(F)F)C2)cn1", "note": "[Example 36, 4,4,4-trifluoro-1-[3-(6-isopropoxy-3-pyridyl)azetidin-1-yl]butan-1-one]", "EC50": "1 to 10"}, {"smiles": "O=C(CCC(F)(F)F)N1CC(c2ccc(OCC(F)(F)F)nc2)C1", "note": "[Example 37, 4,4,4-trifluoro-1-[3-[6-(2,2,2-trifluoroethoxy)-3-pyridyl]azetidin-1-yl]butan-1-one]", "EC50": "1 to 10"}, {"smiles": "O=C(CCC(F)(F)F)N1CC(C2CCOCC2)C1", "note": "[Example 38, 4,4,4-trifluoro-1-(3-(tetrahydro-2H-pyran-4-yl)azetidin-1-yl)butan-1-one]", "EC50": "1 to 10"}, {"smiles": "O=C(CCC(F)(F)F)N1CC(N2CCCCC2)C1", "note": "[Example 39, 4,4,4-trifluoro-1-(3-(piperidin-1-yl)azetidin-1-yl)butan-1-one]", "EC50": "1 to 10"}, {"smiles": "O=C(CCC(F)(F)F)N1CC(C2CCC(F)(F)CC2)C1", "note": "[Example 40, 1-(3-(4,4-difluorocyclohexyl)azetidin-1-yl)-4,4,4-trifluorobutan-1-one]", "EC50": "0.05 to 0.25"}, {"smiles": "COC1(c2ccc(F)cc2)CN(C(=O)CCC(F)(F)F)C1", "note": "[Example 41, 4,4,4-trifluoro-1-(3-(4-fluorophenyl)-3-methoxyazetidin-1-yl)butan-1-one]", "EC50": "0.05 to 0.25"}, {"smiles": "CC1(c2ccc(F)cc2)CN(C(=O)CCC(F)(F)F)C1", "note": "[Example 42, 4,4,4-trifluoro-1-(3-(4-fluorophenyl)-3-methylazetidin-1-yl)butan-1-one]", "EC50": "0.05 to 0.25"}, {"smiles": "N#Cc1ccc(C2CN(C(=O)CCC(F)(F)F)C2)cc1", "note": "[Example 43, 4-(1-(4,4,4-trifluorobutanoyl)azetidin-3-yl)benzonitrile]", "EC50": "1 to 10"}, {"smiles": "O=C(CCC(F)(F)F)N1CC(F)(c2ccc(F)cc2)C1", "note": "[Example 44, 4,4,4-trifluoro-1-(3-fluoro-3-(4-fluorophenyl)azetidin-1-yl)butan-1-one]", "EC50": "< 0.05"}]}]}
